What all share (experiment): Compound 1 selectivity panel, buffer IC50
Common to all, as to type: cell-based

Assay [1] has as its target CCR2 (Homo sapiens, UniProt P41597). As to conditions: Receptor CCR2. How it is done:
(§1) The selectivity of Compound 1 was tested by determining the IC50 value against a diverse panel of receptors, enzymes, and ion channels. […] See, Table 1.

Assay [2] concerns the target CCR8 (Homo sapiens, UniProt P51685). As to conditions: Receptor CCR8. How it is done: as §1
In assay [3] the target is T1, CXCR2 (Homo sapiens, UniProt P25025).
T1 sequence (P25025 1-360): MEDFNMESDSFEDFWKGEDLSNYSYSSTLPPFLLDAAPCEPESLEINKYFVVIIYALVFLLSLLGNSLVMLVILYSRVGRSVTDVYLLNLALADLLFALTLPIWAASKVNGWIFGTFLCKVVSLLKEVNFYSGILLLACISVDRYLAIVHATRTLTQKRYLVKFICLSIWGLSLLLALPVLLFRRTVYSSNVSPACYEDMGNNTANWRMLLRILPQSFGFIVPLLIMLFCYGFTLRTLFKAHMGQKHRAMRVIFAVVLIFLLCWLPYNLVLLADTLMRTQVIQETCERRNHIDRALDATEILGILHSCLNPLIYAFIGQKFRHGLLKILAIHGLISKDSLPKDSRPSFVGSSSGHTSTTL
As to conditions: Receptor CXCR2. How it is done: as §1

The target of assay [4] is T2, CCR10 (Homo sapiens, UniProt P46092).
T2 sequence (P46092 1-362): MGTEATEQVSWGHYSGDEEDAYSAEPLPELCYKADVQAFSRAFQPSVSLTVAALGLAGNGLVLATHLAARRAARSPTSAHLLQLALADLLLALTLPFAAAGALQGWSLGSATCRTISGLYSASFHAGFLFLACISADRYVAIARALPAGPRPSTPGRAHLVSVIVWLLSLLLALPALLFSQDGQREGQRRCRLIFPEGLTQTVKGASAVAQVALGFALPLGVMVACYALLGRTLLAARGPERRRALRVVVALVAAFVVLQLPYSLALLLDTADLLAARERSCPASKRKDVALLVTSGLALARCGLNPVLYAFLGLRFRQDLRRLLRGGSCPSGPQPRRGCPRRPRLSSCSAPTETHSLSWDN
As to conditions: Receptor CCR10. How it is done: as §1

Assay [5] concerns the target T3, CCR4 (Homo sapiens, UniProt P51679).
T3 sequence (P51679 1-360): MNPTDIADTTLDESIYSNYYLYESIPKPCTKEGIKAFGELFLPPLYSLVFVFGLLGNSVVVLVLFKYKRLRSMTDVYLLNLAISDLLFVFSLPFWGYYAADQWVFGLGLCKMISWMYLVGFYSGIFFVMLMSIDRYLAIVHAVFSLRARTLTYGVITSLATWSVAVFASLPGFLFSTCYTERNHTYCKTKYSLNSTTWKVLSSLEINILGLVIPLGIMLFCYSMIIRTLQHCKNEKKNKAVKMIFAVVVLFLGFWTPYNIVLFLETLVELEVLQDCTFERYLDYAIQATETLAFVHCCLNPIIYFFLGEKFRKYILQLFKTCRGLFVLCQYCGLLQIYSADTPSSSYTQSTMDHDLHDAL
How it is done: as §1

For assay [6], the target named is T4, CXCR3 (Homo sapiens, UniProt P49682).
T4 sequence (P49682 1-368): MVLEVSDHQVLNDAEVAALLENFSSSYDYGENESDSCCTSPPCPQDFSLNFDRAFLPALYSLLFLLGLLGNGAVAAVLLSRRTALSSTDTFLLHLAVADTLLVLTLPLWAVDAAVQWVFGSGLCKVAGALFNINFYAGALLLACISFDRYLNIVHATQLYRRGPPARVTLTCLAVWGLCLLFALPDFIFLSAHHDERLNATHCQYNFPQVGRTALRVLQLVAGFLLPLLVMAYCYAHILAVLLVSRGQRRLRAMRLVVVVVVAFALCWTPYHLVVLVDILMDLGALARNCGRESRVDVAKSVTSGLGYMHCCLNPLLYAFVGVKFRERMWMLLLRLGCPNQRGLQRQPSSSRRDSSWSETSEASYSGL
As to conditions: Receptor CXCR3. How it is done:
as §1

The target in assay [7] is T5, CCR7 (Homo sapiens, UniProt P32248).
T5 sequence (P32248 25-378): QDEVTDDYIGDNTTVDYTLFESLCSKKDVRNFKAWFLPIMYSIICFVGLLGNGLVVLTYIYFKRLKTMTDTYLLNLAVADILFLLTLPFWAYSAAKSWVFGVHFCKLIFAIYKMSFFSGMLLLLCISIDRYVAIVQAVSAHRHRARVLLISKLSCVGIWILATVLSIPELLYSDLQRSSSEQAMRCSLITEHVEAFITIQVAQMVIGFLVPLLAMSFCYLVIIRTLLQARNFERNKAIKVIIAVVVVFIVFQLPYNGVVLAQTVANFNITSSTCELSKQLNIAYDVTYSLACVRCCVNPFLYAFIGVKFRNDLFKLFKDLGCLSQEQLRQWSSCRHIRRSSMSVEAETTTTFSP
The following applies: Receptor CCR7. How it is done: as §1

Assay [8] deals with T6, CCR6 (Homo sapiens, UniProt P51684).
T6 sequence (P51684 1-374): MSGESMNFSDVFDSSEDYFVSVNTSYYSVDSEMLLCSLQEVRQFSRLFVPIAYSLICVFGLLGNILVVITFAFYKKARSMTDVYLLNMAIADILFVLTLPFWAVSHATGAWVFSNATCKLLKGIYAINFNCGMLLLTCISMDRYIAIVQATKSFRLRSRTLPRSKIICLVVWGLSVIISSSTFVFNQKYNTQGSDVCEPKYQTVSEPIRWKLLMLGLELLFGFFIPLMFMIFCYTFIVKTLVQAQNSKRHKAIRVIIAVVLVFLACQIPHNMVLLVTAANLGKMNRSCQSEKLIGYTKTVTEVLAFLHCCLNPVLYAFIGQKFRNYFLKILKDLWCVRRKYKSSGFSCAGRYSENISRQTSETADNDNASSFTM
The following applies: Receptor CCR6. How it is done: as §1

In assay [9] the target is T7, CCR1 (Homo sapiens, UniProt P32246).
T7 sequence (P32246 1-355): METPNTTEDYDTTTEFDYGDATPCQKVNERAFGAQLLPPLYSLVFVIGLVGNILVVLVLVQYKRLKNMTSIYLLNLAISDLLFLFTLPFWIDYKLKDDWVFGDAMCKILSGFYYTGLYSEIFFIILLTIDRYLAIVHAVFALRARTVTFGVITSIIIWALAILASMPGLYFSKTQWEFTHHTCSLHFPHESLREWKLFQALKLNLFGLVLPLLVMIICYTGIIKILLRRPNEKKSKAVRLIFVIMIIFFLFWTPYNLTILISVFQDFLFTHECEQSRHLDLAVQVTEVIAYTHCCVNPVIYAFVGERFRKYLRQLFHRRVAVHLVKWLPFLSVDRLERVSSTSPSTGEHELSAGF
As to conditions: Receptor CCR1. How it is done:
as §1

Some results are limits rather than exact numbers.

Usually IC50 stands for the concentration that inhibits the measured activity by half. Read a high IC50 as weaker potency.

Chain of CCR2 (P41597 whole entry, species assumed): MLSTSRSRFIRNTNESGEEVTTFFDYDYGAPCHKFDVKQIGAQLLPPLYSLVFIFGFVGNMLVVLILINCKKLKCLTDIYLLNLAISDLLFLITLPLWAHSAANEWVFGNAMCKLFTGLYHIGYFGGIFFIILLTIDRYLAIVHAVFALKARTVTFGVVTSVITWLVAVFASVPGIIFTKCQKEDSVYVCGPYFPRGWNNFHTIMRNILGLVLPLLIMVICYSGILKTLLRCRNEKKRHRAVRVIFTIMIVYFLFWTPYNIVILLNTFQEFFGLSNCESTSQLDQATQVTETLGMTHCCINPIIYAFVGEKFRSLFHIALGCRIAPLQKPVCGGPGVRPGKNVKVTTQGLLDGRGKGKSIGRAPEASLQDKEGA
Chain of CCR8 (P51685 whole entry, species assumed): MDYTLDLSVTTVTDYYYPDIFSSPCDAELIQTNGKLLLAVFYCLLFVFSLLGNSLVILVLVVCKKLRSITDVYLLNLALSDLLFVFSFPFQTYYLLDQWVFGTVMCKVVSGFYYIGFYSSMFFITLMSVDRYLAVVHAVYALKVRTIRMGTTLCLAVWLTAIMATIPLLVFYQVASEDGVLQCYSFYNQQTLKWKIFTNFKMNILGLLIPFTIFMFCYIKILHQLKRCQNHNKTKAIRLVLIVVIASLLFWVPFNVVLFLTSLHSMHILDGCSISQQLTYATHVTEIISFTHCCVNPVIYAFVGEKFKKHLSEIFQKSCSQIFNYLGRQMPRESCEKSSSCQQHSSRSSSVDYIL

Consider `C[C@@H](Nc1cc(C2CCN([C@H]3CCCN(CCC(=O)O)C3)CC2)ccc1Cl)c1ccc(Cl)cc1Cl` [Compound 1], for which the IC50 is greater than 10 µM in [1]; greater than 10 µM in assay [2]; greater than 10 µM in assay [3]; greater than 10 µM in assay [4]; 0.002 µM in assay [5] (Receptor CCR4, buffer); greater than 10 µM in assay [6]. Further, the 50% inhibitory concentration (IC50) in [7], in assay [8] and in [9] was greater than 10 µM throughout. Further, in [5] (in words), the “Selectivity against a diverse panel of receptors, enzymes, and ion channels” value is given as “highly specific for CCR4”.
